From doi:10.1101/155374v1, “A trapped double bond-photoisomerization intermediate in a bacterial photoreceptor” (biorxiv, 2017)

Target: T1, Slr1393g3 (GAF3 domain of cyanobacteriochrome Slr1393) (Synechocystis sp. PCC 6803, UniProt P73184)
T1 construct: isolated GAF3 domain, residues 441-596 modelled (155 amino acids stated), N-terminal His tag (tag residues seen at both ends), expressed in E. coli; one monomer per ASU, dimer in solution for Pr state
T1 sequence (P73184 441-596): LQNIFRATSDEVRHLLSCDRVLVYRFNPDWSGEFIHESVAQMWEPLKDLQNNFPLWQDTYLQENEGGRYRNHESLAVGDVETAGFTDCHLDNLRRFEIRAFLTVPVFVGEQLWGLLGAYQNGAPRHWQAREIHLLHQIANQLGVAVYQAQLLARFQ
Test: X-ray crystallography
Type: binding
Details: covalent; thioether bond of Cys528 to C3(1) of PCB; 5DFY in vitro assembled Pr 1.6 A; 5DFX in vivo Pr 1.8 A; 5M82 Pg (15-E) 1.86 A; 5M85 X-ray induced intermediate 2.1 A

C/C=C1/C(=C/c2[nH]c(/C=C3N=C(/C=C4\NC(=O)C(CC)=C4C)C(C)=C\3CCC(=O)O)c(CCC(=O)O)c2C)NC(=O)[C@@H]1C [PCB, phycocyanobilin]
X-ray crystallography: The PCB chromophore is covalently bound to Cys528 on helix a4
